Values quoted from earlier work as cited in patent publication US7037523B2, “Controlled release compositions for macrolide antimicrobial agents” (Wockhardt Limited, priority 2001, dated 2006).

Tests used:
[1] = normal gastric pH of 1.0–2.0

degradation in acidic medium [1]: degrades rapidly
solubility in water: practically insoluble
SMILES: CC[C@H]1OC(=O)[C@H](C)[C@@H](O[C@H]2C[C@@](C)(OC)[C@@H](O)[C@H](C)O2)[C@H](C)[C@@H](O[C@@H]2O[C@H](C)C[C@H](N(C)C)[C@H]2O)[C@](C)(OC)C[C@@H](C)C(=O)[C@H](C)[C@@H](O)[C@]1(C)O [Clarithromycin]
